Laboratory results: PubChem BioAssay AID2060511 (Molecular Pharmacology Branch, DTP, NCI, 2025)
pIC50: −log10 of the molar value. Values joined by “and” are separate entries in the source; they are usually repeats but may differ in a detail not shown here. Equal values may be shown once.

Tested on: 422866-222-R5-J1-PDC spheroids with HUVEC/MSC, viability
Test: Anticancer human tumor 422866-222-R5-J1-PDC patient-derived pancreatic adenocarcinoma cell line growth inhibition [GQUAD]
Details: for viability, T/C: stronger effect = lower value
Text: DNA G-quadruplex Stabilizer Agents in Combinations in Complex Spheroids
A high-throughput screen of multi-cell type tumor spheroids was designed to identify active combinations of DNA G-quadruplex stabilizer agents and targeted small molecules. Complex spheroids include a stromal component modeled by human endothelial cells (HUVEC) and fibroblasts modeled by human mesenchymal stem cells (MSCs). The concentration ranges selected for each drug and investigational agent were based upon clinically achievable concentrations if the clinical Cmax of the agent was known.
Compounds. The drugs and investigational agents: pidnarulex (CX-5461; NSC782164), APTO-253 (NSC789042), BRACO-19 (NSC847499), peposertib (NSC802822), ceralasertib (NSC780249), elimusertib (NSC800525), camonsertib (NSC841442), AZD-1390 (NSC803789), olaparib (NSC753686), talazoparib (NSC767125), ART-558 (NSC835418), sotorasib (NSC818433), MRTX-1133 (NSC836407), SN-38 (NSC673596), topotecan (NSC609699), etoposide (NSC141540), doxorubicin (NSC123127), gemcitabine (NSC613327), 5-fluorouracil (NSC19893), paclitaxel (NSC125973), vemurafenib (NSC761431), panobinostat (NSC761190), R-306465 (JNJ-16241199; NSC773264), adavosertib (NSC754352), TP-3654 (NSC805149), carboplatin (NSC241240), KSQ-4279 (NSC840948), and staurosporine (NSC755774) were obtained from the National Cancer Institute (NCI) Developmental Therapeutics Program Chemical Repository (34). The FDA-approved anticancer drug set is available from the NCI Developmental Therapeutics Program. […] The stock solutions were prepared in dimethyl sulfoxide (DMSO, Sigma-Aldrich, St. Louis, MO, cat. D2650) at 800-fold the tested concentration and stored at -70 degrees C prior to their use. All drugs and investigational agents were tested over a range starting from a high concentration at or near the clinical Cmax and decreasing in half-log increments. If the clinical Cmax for an agent had not been determined, the highest concentration tested was 10 microM.
2.3 Cell Culture. All cells were maintained in an incubator at 37 degrees C and 5% CO2 with 95% humidity. The PDC lines were cultured according to standard operating procedures established by the NCI PDMR. All PDCs were thawed and cultured in Matrigel-coated flasks prepared with a working solution of 1X Ham's F-12 nutrient mix, without supplementation (Invitrogen, cat. 11765054), 100 U/mL penicillin-streptomycin (Invitrogen, cat. 15140122), and 2.5% Matrigel (Corning Inc., cat. 354248) for the first three passages. The 857933-349-R-J2-PDC line was cultured in 6C/Colon 1B media, which includes advanced DMEM/F-12 (Thermo Fisher Scientific, cat. 12634028), 10 mM HEPES (Thermo Fisher Scientific, cat. 15630080), 1X GlutaMAX supplement (Thermo Fisher Scientific, cat. 35050061), 0.1 mg/mL primocin (InvivoGen, cat. ant-pm-2), 10% defined fetal bovine serum, heat inactivated (HyClone Laboratories Inc., cat. SH30070.03HI), 50% L-WRN conditioned media (ATCC, cat. CRL-3276), 1.25 mM N-Acetyl-L-cysteine (Sigma-Aldrich, cat. A9165), 10 mM nicotinamide (Sigma-Aldrich, cat. N0636), 1X B-27 supplement (Thermo Fisher Scientific, cat. 17504044), 1X N-2 supplement (Thermo Fisher Scientific, cat. 17502048), 10 microM Y-27632 dihydrochloride (Tocris Bioscience, cat. 1254), and 50 ng/mL human EGF recombinant protein (Thermo Fisher Scientific, cat. PHG0311). The 485176-168-R4-J1-PDC line was cultured in Panc media, which includes all 6C/Colon 1B media components plus 100 ng/mL human FGF-10 (Thermo Fisher Scientific, cat. 100-26), 500 nM SB-431542 (Selleckchem, cat. S1067), and gastrin (Tocris, cat. 3006).
[…]

[1] = curve of first compound, second compound 0.0316 µM
[2] = curve of first compound, second compound 0.1 µM
[3] = curve of first compound, second compound 0.316 µM
[4] = curve of first compound, second compound 1 µM
[5] = curve of first compound, second compound 3.16 µM
[6] = curve of first compound, second compound 10 µM
[7] = second compound 0.0316 µM, first compound 0.0316 µM
[8] = second compound 0.0316 µM, first compound 0.316 µM
[9] = second compound 0.1 µM, first compound 0.0316 µM
[10] = second compound 0.1 µM, first compound 0.316 µM
[11] = second compound 0.316 µM, first compound 0.0316 µM
[12] = second compound 0.316 µM, first compound 0.316 µM
[13] = second compound 1 µM, first compound 0.0316 µM
[14] = second compound 1 µM, first compound 0.316 µM
[15] = second compound 3.16 µM, first compound 0.0316 µM
[16] = second compound 3.16 µM, first compound 0.316 µM
[17] = second compound 10 µM, first compound 0.0316 µM
[18] = second compound 10 µM, first compound 0.316 µM
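Note: spheroids exposed to compounds for seven days before reading.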
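Throughout, for viability, T/C: percent viability relative to DMSO vehicle control taken as 100%.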

Cn1ncnc1[C@H]1c2n[nH]c(=O)c3cc(F)cc(c23)N[C@@H]1c1ccc(F)cc1 + Cc1[nH]c2ccc(F)cc2c1-c1nc2c3cccnc3c3ncccc3c2[nH]1
pIC50 [1]: < 6.50
pIC50 [2]: < 6.50
pIC50 [3]: < 6.50
pIC50 [4]: < 6.50
pIC50 [5]: < 6.50
pIC50 [6]: < 6.50
viability, T/C (second compound 0.0316 µM, first compound 0.000999 µM): 92.4%
viability, T/C (second compound 0.0316 µM, first compound 0.00316 µM): 92.3%
viability, T/C (second compound 0.0316 µM, first compound 0.00999 µM): 105%
viability, T/C [7]: 91.8%
viability, T/C (second compound 0.0316 µM, first compound 0.0999 µM): 86.5%
viability, T/C [8]: 81.9%
viability, T/C (second compound 0.1 µM, first compound 0.000999 µM): 99.5%
viability, T/C (second compound 0.1 µM, first compound 0.00316 µM): 102%
viability, T/C (second compound 0.1 µM, first compound 0.00999 µM): 102%
viability, T/C [9]: 89.5%
viability, T/C (second compound 0.1 µM, first compound 0.0999 µM): 97.3%
viability, T/C [10]: 86.8%
viability, T/C (second compound 0.316 µM, first compound 0.000999 µM): 105%
viability, T/C (second compound 0.316 µM, first compound 0.00316 µM): 114%
viability, T/C (second compound 0.316 µM, first compound 0.00999 µM): 83.2%
viability, T/C [11]: 91.2%
viability, T/C (second compound 0.316 µM, first compound 0.0999 µM): 91.4%
viability, T/C [12]: 97.3%
viability, T/C (second compound 1 µM, first compound 0.000999 µM): 89.6%
viability, T/C (second compound 1 µM, first compound 0.00316 µM): 109%
viability, T/C (second compound 1 µM, first compound 0.00999 µM): 104%
viability, T/C [13]: 108%
viability, T/C (second compound 1 µM, first compound 0.0999 µM): 94.3%
viability, T/C [14]: 80.8%
viability, T/C (second compound 3.16 µM, first compound 0.000999 µM): 93.1%
viability, T/C (second compound 3.16 µM, first compound 0.00316 µM): 82.8%
viability, T/C (second compound 3.16 µM, first compound 0.00999 µM): 80.4%
viability, T/C [15]: 78.8%
viability, T/C (second compound 3.16 µM, first compound 0.0999 µM): 94.3%
viability, T/C [16]: 81.9%
viability, T/C (second compound 10 µM, first compound 0.000999 µM): 87.5%
viability, T/C (second compound 10 µM, first compound 0.00316 µM): 92.7%
viability, T/C (second compound 10 µM, first compound 0.00999 µM): 87%
viability, T/C [17]: 97.7%
viability, T/C (second compound 10 µM, first compound 0.0999 µM): 81.1%
viability, T/C [18]: 71.1%

CC(C)n1c(=O)n(C)c2cnc3cc(F)c(-c4ccc(OCCCN5CCCCC5)nc4)cc3c21
viability, T/C (compound 0.0316 µM): 99.2% and 87.6% and 100%
viability, T/C (compound 0.1 µM): 80.5% and 101% and 90.1%
viability, T/C (compound 0.316 µM): 110% and 104% and 113%
viability, T/C (compound 1 µM): 97.4% and 95.7% and 97.5%
viability, T/C (compound 3.16 µM): 85.5% and 89.8% and 90.1%
viability, T/C (compound 10 µM): 58.6% and 62.1% and 64.2%
pIC50 (curve of compound): < 5.00

COc1ncnc(C2CC2)c1-c1ncc2cnn(Cc3ccc(-c4nc(C(F)(F)F)cn4C(C)C)cc3)c2n1 + Cc1cnc(CNC(=O)c2c(=O)c3ccc(N4CCCN(C)CC4)nc3n3c2sc2ccccc23)cn1
pIC50 [1]: < 5.00
pIC50 [2]: < 5.00
pIC50 [3]: < 5.00
pIC50 [4]: < 5.00
pIC50 [5]: < 5.00
pIC50 [6]: < 5.00
viability, T/C [7]: 86.6%
viability, T/C (second compound 0.0316 µM, first compound 0.1 µM): 79.2%
viability, T/C [8]: 84.4%
viability, T/C (second compound 0.0316 µM, first compound 1 µM): 74.3%
viability, T/C (second compound 0.0316 µM, first compound 3.16 µM): 91.5%
viability, T/C (second compound 0.0316 µM, first compound 10 µM): 93.6%
viability, T/C [9]: 99.4%
viability, T/C (second compound 0.1 µM, first compound 0.1 µM): 74.7%
viability, T/C [10]: 82.9%
viability, T/C (second compound 0.1 µM, first compound 1 µM): 88.8%
viability, T/C (second compound 0.1 µM, first compound 3.16 µM): 101%
viability, T/C (second compound 0.1 µM, first compound 10 µM): 86.5%
viability, T/C [11]: 84.4%
viability, T/C (second compound 0.316 µM, first compound 0.1 µM): 72.4%
viability, T/C [12]: 78.8%
viability, T/C (second compound 0.316 µM, first compound 1 µM): 80.4%
viability, T/C (second compound 0.316 µM, first compound 3.16 µM): 93.2%
viability, T/C (second compound 0.316 µM, first compound 10 µM): 94%
viability, T/C [13]: 63%
viability, T/C (second compound 1 µM, first compound 0.1 µM): 80.1%
viability, T/C [14]: 84.3%
viability, T/C (second compound 1 µM, first compound 1 µM): 85.4%
viability, T/C (second compound 1 µM, first compound 3.16 µM): 82.3%
viability, T/C (second compound 1 µM, first compound 10 µM): 98.8%
viability, T/C [15]: 71.8%
viability, T/C (second compound 3.16 µM, first compound 0.1 µM): 80.4%
viability, T/C [16]: 82.7%
viability, T/C (second compound 3.16 µM, first compound 1 µM): 71.9%
viability, T/C (second compound 3.16 µM, first compound 3.16 µM): 98.1%
viability, T/C (second compound 3.16 µM, first compound 10 µM): 98%
viability, T/C [17]: 70.3%
viability, T/C (second compound 10 µM, first compound 0.1 µM): 80.7%
viability, T/C [18]: 88.6%
viability, T/C (second compound 10 µM, first compound 1 µM): 72.8%
viability, T/C (second compound 10 µM, first compound 3.16 µM): 84.7%
viability, T/C (second compound 10 µM, first compound 10 µM): 88.2%
